From the supplement of paper PMC10307832

Tests used:
Assay in all cases: relative viability (nuclei count vs DMSO), 5 days (fraction); higher = more cells survive
[1] = compound: CN(c1ncccc1CNc1nc(Nc2ccc3c(c2)CC(=O)N3)ncc1C(F)(F)F)S(C)(=O)=O
Method in brief: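 Viability here means nuclei in treated wells divided by nuclei in vehicle wells, reported as the median across plates. Only plates with control CV below 25% and at least one doubling passed. Lung cancer cell lines in 1536-well plates were exposed to five √10-spaced library-drug doses for 5 days and counted from 4× Hoechst images in MetaXpress.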

[2] = compound: CN(c1ncccc1CNc1nc(Nc2ccc3c(c2)CC(=O)N3)ncc1C(F)(F)F)S(C)(=O)=O + O=C(CCCCCCC(=O)Nc1ccccc1)NO [Vorinostat] (partner 1 µM)
Method in brief: (§1)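 Cells from lung cancer lines were seeded into 1536-well plates and, one day later, dosed by pin tool. Treatments were either a single drug or a fixed dose of an anchor drug with five library-drug doses (not always all listed) in √10 steps. After 5 days, nuclei were stained in a one-step fixation (final 0.05% Triton X-100, 1% formaldehyde, 1 ug/ml Hoechst) and counted on 4× images, and relative viability is the treated-to-vehicle nuclei ratio, as the median of duplicate plates.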

[3] = compound: CN(c1ncccc1CNc1nc(Nc2ccc3c(c2)CC(=O)N3)ncc1C(F)(F)F)S(C)(=O)=O + CC(=O)c1c(C)c2cnc(Nc3ccc(N4CCNCC4)cn3)nc2n(C2CCCC2)c1=O [Palbociclib] (partner 0.5 µM)
Method in brief: as §1

[4] = compound: CN(c1ncccc1CNc1nc(Nc2ccc3c(c2)CC(=O)N3)ncc1C(F)(F)F)S(C)(=O)=O + CC(=O)Nc1cccc(-n2c(=O)n(C3CC3)c(=O)c3c(Nc4ccc(I)cc4F)n(C)c(=O)c(C)c32)c1 [Trametinib] (partner 0.02 µM)
Method in brief: as §1

[5] = compound: CN(c1ncccc1CNc1nc(Nc2ccc3c(c2)CC(=O)N3)ncc1C(F)(F)F)S(C)(=O)=O + Cc1cc(Nc2cc(N3CCN(C)CC3)nc(Sc3ccc(NC(=O)C4CC4)cc3)n2)n[nH]1 [Tozasertib] (partner 0.1 µM)
Method in brief: as §1

[6] = compound: CN(c1ncccc1CNc1nc(Nc2ccc3c(c2)CC(=O)N3)ncc1C(F)(F)F)S(C)(=O)=O + NC(=O)Nc1cc(-c2cccc(F)c2)sc1C(=O)N[C@H]1CCCNC1 [AZD7762] (partner 0.2 µM)
Method in brief: as §1

[7] = compound: CN(c1ncccc1CNc1nc(Nc2ccc3c(c2)CC(=O)N3)ncc1C(F)(F)F)S(C)(=O)=O + COc1cccc2cc(-c3nc([C@H]4CC[C@H](C(=O)O)CC4)n4ncnc(N)c34)[nH]c12 [OSI-027] (partner 0.5 µM)
Method in brief: as §1

[8] = compound: CN(c1ncccc1CNc1nc(Nc2ccc3c(c2)CC(=O)N3)ncc1C(F)(F)F)S(C)(=O)=O + O=C(c1cc(Cc2n[nH]c(=O)c3ccccc23)ccc1F)N1CCN(C(=O)C2CC2)CC1 [Olaparib] (partner 8 µM)
Method in brief: as §1

[9] = compound: CN(c1ncccc1CNc1nc(Nc2ccc3c(c2)CC(=O)N3)ncc1C(F)(F)F)S(C)(=O)=O + Nc1nc2[nH]cc(CCc3ccc(C(=O)N[C@@H](CCC(=O)O)C(=O)O)cc3)c2c(=O)[nH]1 [Pemetrexed] (partner 0.2 µM)
Method in brief: as §1

[10] = compound: CN(c1ncccc1CNc1nc(Nc2ccc3c(c2)CC(=O)N3)ncc1C(F)(F)F)S(C)(=O)=O + Nc1ncn([C@H]2C[C@H](O)[C@@H](CO)O2)c(=O)n1 [Decitabine] (partner 2 µM)
Method in brief: as §1

[11] = compound: CN(c1ncccc1CNc1nc(Nc2ccc3c(c2)CC(=O)N3)ncc1C(F)(F)F)S(C)(=O)=O + CCNC(=O)c1noc(-c2cc(C(C)C)c(O)cc2O)c1-c1ccc(CN2CCOCC2)cc1 [Luminespib] (partner 0.01 µM)
Method in brief: as §1

[12] = compound: CN(c1ncccc1CNc1nc(Nc2ccc3c(c2)CC(=O)N3)ncc1C(F)(F)F)S(C)(=O)=O + COc1cc2c(Oc3ccc(NC(=O)C4(C(=O)Nc5ccc(F)cc5)CC4)cc3F)ccnc2cc1OCCCN1CCOCC1 [Foretinib] (partner 0.25 µM)
Method in brief: as §1

[13] = compound: CN(c1ncccc1CNc1nc(Nc2ccc3c(c2)CC(=O)N3)ncc1C(F)(F)F)S(C)(=O)=O + N=C(N)NC(=N)NCCc1ccccc1 [Phenformin] (partner 250 µM)
Method in brief: as §1

[14] = compound: CN(c1ncccc1CNc1nc(Nc2ccc3c(c2)CC(=O)N3)ncc1C(F)(F)F)S(C)(=O)=O + Cc1nc(Nc2ncc(C(=O)Nc3c(C)cccc3Cl)s2)cc(N2CCN(CCO)CC2)n1 [Dasatinib] (partner 0.075 µM)
Method in brief: as §1

NCI-H1648 was tested, and the relative viability ([1]; 0.01 µM) was 0.773, the relative viability ([1]; 0.03162 µM) was 0.512 and the relative viability ([1]; 0.1 µM) was 0.585. It also gave a relative viability ([1]; 0.3162 µM) of 0.634, a relative viability ([1]; 1 µM) of 0.458 and a relative viability ([2]; first compound 0.01 µM) of 0.336. The relative viability ([2]; first compound 0.03162 µM) was 0.493, the relative viability ([2]; first compound 0.1 µM) was 0.471 and the relative viability ([2]; first compound 0.3162 µM) was 0.292. It also gave a relative viability ([2]; first compound 1 µM) of 0.413, a relative viability ([3]; first compound 0.01 µM) of 0.264 and a relative viability ([3]; first compound 0.03162 µM) of 0.274. The relative viability ([3]; first compound 0.1 µM) was 0.224, the relative viability ([3]; first compound 0.3162 µM) was 0.242 and the relative viability ([3]; first compound 1 µM) was 0.207. The relative viability ([4]; first compound 0.01 µM) was 0.417, the relative viability ([4]; first compound 0.03162 µM) was 0.435 and the relative viability ([4]; first compound 0.1 µM) was 0.462. For the same cell line, the relative viability ([4]; first compound 0.3162 µM) was 0.392, the relative viability ([4]; first compound 1 µM) was 0.301 and the relative viability ([5]; first compound 0.01 µM) was 0.433. For the same cell line, the relative viability ([5]; first compound 0.03162 µM) was 0.36, the relative viability ([5]; first compound 0.1 µM) was 0.317 and the relative viability ([5]; first compound 0.3162 µM) was 0.386. For the same cell line, the relative viability ([5]; first compound 1 µM) was 0.407, the relative viability ([6]; first compound 0.01 µM) was 0.66 and the relative viability ([6]; first compound 0.03162 µM) was 0.588. For the same cell line, the relative viability ([6]; first compound 0.1 µM) was 0.535, the relative viability ([6]; first compound 0.3162 µM) was 0.551 and the relative viability ([6]; first compound 1 µM) was 0.677. The relative viability ([7]; first compound 0.01 µM) was 0.28, the relative viability ([7]; first compound 0.03162 µM) was 0.237 and the relative viability ([7]; first compound 0.1 µM) was 0.266. The relative viability ([7]; first compound 0.3162 µM) was 0.25, the relative viability ([7]; first compound 1 µM) was 0.24 and the relative viability ([8]; first compound 0.01 µM) was 0.874. For the same cell line, the relative viability ([8]; first compound 0.03162 µM) was 0.886, the relative viability ([8]; first compound 0.1 µM) was 0.918 and the relative viability ([8]; first compound 0.3162 µM) was 0.48. It also gave a relative viability ([8]; first compound 1 µM) of 0.46, a relative viability ([9]; first compound 0.01 µM) of 0.66 and a relative viability ([9]; first compound 0.03162 µM) of 0.707. It also gave a relative viability ([9]; first compound 0.1 µM) of 0.604, a relative viability ([9]; first compound 0.3162 µM) of 0.694 and a relative viability ([9]; first compound 1 µM) of 0.422. It also gave a relative viability ([10]; first compound 0.01 µM) of 0.6, a relative viability ([10]; first compound 0.03162 µM) of 0.476 and a relative viability ([10]; first compound 0.1 µM) of 0.426. For the same cell line, the relative viability ([10]; first compound 0.3162 µM) was 0.485 and the relative viability ([10]; first compound 1 µM) was 0.367.

NCI-H1623 showed a relative viability ([1]; 0.01 µM) of 0.733, a relative viability ([1]; 0.03162 µM) of 1.07 and a relative viability ([1]; 0.1 µM) of 0.92. The relative viability ([1]; 0.3162 µM) was 0.968, the relative viability ([1]; 1 µM) was 0.963 and the relative viability ([5]; first compound 0.03162 µM) was 0.452. For the same cell line, the relative viability ([5]; first compound 0.1 µM) was 0.383, the relative viability ([5]; first compound 0.3162 µM) was 0.447 and the relative viability ([5]; first compound 1 µM) was 0.428. It also gave a relative viability ([11]; first compound 0.03162 µM) of 0.59, a relative viability ([11]; first compound 0.1 µM) of 0.503 and a relative viability ([11]; first compound 0.3162 µM) of 0.514. The relative viability ([11]; first compound 1 µM) was 0.429, the relative viability ([7]; first compound 0.01 µM) was 0.418 and the relative viability ([7]; first compound 0.03162 µM) was 0.423. It also gave a relative viability ([7]; first compound 0.1 µM) of 0.428, a relative viability ([7]; first compound 0.3162 µM) of 0.435 and a relative viability ([7]; first compound 1 µM) of 0.462. The relative viability ([12]; first compound 0.01 µM) was 0.798, the relative viability ([12]; first compound 0.03162 µM) was 0.905 and the relative viability ([12]; first compound 0.1 µM) was 0.974. The relative viability ([12]; first compound 0.3162 µM) was 0.882, the relative viability ([12]; first compound 1 µM) was 0.826 and the relative viability ([13]; first compound 0.03162 µM) was 0.571. The relative viability ([13]; first compound 0.1 µM) was 0.626, the relative viability ([13]; first compound 0.3162 µM) was 0.568 and the relative viability ([13]; first compound 1 µM) was 0.593. The relative viability ([14]; first compound 0.03162 µM) was 0.514, the relative viability ([14]; first compound 0.1 µM) was 0.623 and the relative viability ([14]; first compound 0.3162 µM) was 0.51. For the same cell line, the relative viability ([14]; first compound 1 µM) was 0.528.
